Activity calls are given as the source filed them.
How the values were obtained:
[1] = target: Voltage-dependent T-type calcium channel subunit alpha-1H (Homo sapiens, UniProt O95180); type: functional;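 further: channel activity triggered by adding a high calcium stimulation buffer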
Beta-galactosidase = Beta-galactosidase (Escherichia coli, UniProt Q8VNN2); test: PubChem AID 485352; type: functional
[2] = target: T1, Type-1 angiotensin II receptor (Homo sapiens, UniProt P30556); test: AT1 receptor antagonists, dose response, selectivity assay for APJ receptor antagonist project, cell-based, uHTS hits (AID 463214); type: functional;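 further: antagonist potency against angiotensin II stimulated AT1 response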
T1 sequence (P30556 whole entry): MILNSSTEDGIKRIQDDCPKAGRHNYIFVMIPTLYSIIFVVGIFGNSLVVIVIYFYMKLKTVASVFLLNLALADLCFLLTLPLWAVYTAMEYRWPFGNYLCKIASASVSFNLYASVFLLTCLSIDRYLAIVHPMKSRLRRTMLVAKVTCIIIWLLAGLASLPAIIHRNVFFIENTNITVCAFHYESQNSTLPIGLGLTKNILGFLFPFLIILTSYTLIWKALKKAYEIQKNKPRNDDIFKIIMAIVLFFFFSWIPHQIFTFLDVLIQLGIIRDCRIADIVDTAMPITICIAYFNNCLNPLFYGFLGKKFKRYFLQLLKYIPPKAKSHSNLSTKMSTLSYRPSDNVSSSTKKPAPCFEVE

[3] = target: 72 kDa type IV collagenase (Homo sapiens, UniProt P08253); test: Dose Response validation of uHTS RPN11 inhibitor hits using a MMP-2 Fluorescence assay.; type: functional
Chain of 72 kDa type IV collagenase (P08253 whole entry): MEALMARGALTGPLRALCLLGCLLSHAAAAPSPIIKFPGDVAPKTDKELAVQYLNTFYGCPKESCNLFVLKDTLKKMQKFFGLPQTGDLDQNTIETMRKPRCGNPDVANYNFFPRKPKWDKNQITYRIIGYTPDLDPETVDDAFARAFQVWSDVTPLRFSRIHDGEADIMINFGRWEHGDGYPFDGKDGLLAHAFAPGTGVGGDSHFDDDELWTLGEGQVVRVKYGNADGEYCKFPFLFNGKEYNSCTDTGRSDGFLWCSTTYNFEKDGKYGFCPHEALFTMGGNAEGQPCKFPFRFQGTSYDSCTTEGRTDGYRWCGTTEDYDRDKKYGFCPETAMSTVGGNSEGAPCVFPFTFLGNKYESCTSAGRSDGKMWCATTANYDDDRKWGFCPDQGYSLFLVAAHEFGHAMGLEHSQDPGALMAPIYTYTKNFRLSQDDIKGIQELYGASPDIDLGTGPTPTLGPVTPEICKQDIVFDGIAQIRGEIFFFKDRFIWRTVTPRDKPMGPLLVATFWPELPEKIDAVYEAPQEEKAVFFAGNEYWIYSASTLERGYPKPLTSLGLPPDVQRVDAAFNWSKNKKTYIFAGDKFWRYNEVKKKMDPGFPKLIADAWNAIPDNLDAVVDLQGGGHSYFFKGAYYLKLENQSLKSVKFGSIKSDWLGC

[4] = target: 26S proteasome non-ATPase regulatory subunit 14 (Homo sapiens, UniProt O00487); test: inhibition of proteasome subunit RPN11 – biochemical, fluorescence polarization, uHTS hits, confirmation (AID 602368); type: functional
Chain of 26S proteasome non-ATPase regulatory subunit 14 (O00487 whole entry): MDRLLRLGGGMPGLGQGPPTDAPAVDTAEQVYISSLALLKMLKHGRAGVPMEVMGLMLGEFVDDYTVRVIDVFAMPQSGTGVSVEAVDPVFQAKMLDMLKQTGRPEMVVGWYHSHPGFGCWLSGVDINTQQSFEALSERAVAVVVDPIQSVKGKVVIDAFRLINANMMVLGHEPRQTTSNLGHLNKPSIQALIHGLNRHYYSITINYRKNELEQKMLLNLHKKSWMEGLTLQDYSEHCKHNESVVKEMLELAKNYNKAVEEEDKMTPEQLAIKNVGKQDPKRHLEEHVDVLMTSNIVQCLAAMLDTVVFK

Prothrombin = Prothrombin (Bos taurus, UniProt P00735); test: thrombin inhibition, dose response, biochemical, fluorescence polarization, uHTS hits (AID 602369); type: functional
[5] = target: FAD-linked sulfhydryl oxidase ALR (Homo sapiens, UniProt P55789); test: inhibitors of human ALR sulfhydryl oxidase, dose response, biochemical, H2O2 detection, luminescence, cherry-pick (AID 493248)
Chain of FAD-linked sulfhydryl oxidase ALR (P55789 whole entry): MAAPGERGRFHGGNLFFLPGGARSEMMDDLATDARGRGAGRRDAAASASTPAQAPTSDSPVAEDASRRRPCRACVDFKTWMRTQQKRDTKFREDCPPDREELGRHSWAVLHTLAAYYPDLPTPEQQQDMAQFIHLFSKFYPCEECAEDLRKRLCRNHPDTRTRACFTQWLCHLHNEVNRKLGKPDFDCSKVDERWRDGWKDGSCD

[6] = A cytotoxicity screen of small molecule inhibitors of the PhoP region in Salmonella typhi identified in the primary screen. [Related pubchem assays: 1850, 1864, 1985 ]; type: functional
Cytochrome P450 3A4 = Cytochrome P450 3A4 (Homo sapiens, UniProt P08684); details: Potency;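 further: confirmatory qHTS run detecting inhibitors and substrates of CYP3A4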
Chain of Cytochrome P450 3A4 (P08684 whole entry): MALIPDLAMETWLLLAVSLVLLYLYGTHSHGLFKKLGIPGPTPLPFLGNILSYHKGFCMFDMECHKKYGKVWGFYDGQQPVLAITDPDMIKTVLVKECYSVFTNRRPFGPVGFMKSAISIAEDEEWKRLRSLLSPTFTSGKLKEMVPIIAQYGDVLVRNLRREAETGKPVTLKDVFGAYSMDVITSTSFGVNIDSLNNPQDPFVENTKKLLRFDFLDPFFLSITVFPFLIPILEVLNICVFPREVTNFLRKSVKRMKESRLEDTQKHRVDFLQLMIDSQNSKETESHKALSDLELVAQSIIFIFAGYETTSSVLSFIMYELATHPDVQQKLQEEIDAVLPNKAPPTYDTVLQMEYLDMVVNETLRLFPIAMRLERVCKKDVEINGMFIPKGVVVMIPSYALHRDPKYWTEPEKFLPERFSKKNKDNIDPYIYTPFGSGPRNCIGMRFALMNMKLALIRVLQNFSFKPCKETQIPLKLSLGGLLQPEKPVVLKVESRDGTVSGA

[7] = target: T2, Endoribonuclease toxin MazF (Escherichia coli K-12, UniProt P0AE70); test: MazF toxin RNase activators, dose response, biochemical, fluorescence, single-stranded RNA substrate, uHTS hits (AID 588481); type: functional
T2 sequence (P0AE70 whole entry): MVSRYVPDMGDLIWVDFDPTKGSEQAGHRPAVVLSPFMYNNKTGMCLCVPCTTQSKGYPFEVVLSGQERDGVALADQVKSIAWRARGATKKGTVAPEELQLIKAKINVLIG

[8] = target: T2, Endoribonuclease toxin MazF; test: fluorescent RNA oligo signal without MazF, dose response, counter-screen for MazEF activator project, biochemical, fluorescence, single-stranded RNase substrate (AID 588502); type: functional
[9] = target: T3, Zinc finger protein mex-5 (Caenorhabditis elegans, UniProt Q9XUB2); test: MEX-5/TCR-2 RNA interaction inhibitors, dose response, biochemical, C. elegans, fluorescence polarization (AID 1960)
T3 sequence (Q9XUB2 whole entry): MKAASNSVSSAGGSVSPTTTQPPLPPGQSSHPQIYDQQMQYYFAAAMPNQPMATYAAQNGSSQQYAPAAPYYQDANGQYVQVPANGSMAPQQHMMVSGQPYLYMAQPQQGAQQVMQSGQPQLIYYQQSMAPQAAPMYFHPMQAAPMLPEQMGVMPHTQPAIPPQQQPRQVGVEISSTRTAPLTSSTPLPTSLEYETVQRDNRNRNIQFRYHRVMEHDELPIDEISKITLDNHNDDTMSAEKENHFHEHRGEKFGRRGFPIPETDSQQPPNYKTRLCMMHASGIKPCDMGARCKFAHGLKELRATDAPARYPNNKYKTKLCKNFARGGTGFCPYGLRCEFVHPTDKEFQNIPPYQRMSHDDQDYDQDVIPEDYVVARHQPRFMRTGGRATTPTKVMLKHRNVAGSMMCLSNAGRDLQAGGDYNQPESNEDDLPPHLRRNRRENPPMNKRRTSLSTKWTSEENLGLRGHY

[10] = target: T4, RNA-binding protein pos-1 (Caenorhabditis elegans, UniProt G5EF15); test: inhibitors of POS-1/mex-3 RNA binding, dose response, biochemical, fluorescence polarization (AID 1964);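 further: purified POS-1 fused to maltose binding protein made in E. coli; potency of compounds blocking POS-1 binding to fluorescent RNA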
T4 sequence (G5EF15 whole entry): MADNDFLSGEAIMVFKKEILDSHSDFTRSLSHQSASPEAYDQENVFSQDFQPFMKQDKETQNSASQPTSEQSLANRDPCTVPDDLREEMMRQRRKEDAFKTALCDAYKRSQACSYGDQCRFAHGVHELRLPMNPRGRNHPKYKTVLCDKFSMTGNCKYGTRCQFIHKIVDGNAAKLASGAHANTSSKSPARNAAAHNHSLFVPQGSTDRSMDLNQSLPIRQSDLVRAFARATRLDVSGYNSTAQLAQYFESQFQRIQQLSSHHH

H9c2 = test: cells; type: functional, cell-based; details: Rattus norvegicus, H9c2, Myocardium
Vero = Vero cell cytotoxicity, cytotoxicity control for flavivirus capping enzyme inhibitors (AID 588742); type: functional; details: Chlorocebus sabaeus
[11] = HEp-2 cell cytotoxicity, dose response, cytotoxicity control for RSV inhibitor project, HTS (AID 2410); type: functional; details: human respiratory syncytial virus

Chain of Voltage-dependent T-type calcium channel subunit alpha-1H (O95180 whole entry): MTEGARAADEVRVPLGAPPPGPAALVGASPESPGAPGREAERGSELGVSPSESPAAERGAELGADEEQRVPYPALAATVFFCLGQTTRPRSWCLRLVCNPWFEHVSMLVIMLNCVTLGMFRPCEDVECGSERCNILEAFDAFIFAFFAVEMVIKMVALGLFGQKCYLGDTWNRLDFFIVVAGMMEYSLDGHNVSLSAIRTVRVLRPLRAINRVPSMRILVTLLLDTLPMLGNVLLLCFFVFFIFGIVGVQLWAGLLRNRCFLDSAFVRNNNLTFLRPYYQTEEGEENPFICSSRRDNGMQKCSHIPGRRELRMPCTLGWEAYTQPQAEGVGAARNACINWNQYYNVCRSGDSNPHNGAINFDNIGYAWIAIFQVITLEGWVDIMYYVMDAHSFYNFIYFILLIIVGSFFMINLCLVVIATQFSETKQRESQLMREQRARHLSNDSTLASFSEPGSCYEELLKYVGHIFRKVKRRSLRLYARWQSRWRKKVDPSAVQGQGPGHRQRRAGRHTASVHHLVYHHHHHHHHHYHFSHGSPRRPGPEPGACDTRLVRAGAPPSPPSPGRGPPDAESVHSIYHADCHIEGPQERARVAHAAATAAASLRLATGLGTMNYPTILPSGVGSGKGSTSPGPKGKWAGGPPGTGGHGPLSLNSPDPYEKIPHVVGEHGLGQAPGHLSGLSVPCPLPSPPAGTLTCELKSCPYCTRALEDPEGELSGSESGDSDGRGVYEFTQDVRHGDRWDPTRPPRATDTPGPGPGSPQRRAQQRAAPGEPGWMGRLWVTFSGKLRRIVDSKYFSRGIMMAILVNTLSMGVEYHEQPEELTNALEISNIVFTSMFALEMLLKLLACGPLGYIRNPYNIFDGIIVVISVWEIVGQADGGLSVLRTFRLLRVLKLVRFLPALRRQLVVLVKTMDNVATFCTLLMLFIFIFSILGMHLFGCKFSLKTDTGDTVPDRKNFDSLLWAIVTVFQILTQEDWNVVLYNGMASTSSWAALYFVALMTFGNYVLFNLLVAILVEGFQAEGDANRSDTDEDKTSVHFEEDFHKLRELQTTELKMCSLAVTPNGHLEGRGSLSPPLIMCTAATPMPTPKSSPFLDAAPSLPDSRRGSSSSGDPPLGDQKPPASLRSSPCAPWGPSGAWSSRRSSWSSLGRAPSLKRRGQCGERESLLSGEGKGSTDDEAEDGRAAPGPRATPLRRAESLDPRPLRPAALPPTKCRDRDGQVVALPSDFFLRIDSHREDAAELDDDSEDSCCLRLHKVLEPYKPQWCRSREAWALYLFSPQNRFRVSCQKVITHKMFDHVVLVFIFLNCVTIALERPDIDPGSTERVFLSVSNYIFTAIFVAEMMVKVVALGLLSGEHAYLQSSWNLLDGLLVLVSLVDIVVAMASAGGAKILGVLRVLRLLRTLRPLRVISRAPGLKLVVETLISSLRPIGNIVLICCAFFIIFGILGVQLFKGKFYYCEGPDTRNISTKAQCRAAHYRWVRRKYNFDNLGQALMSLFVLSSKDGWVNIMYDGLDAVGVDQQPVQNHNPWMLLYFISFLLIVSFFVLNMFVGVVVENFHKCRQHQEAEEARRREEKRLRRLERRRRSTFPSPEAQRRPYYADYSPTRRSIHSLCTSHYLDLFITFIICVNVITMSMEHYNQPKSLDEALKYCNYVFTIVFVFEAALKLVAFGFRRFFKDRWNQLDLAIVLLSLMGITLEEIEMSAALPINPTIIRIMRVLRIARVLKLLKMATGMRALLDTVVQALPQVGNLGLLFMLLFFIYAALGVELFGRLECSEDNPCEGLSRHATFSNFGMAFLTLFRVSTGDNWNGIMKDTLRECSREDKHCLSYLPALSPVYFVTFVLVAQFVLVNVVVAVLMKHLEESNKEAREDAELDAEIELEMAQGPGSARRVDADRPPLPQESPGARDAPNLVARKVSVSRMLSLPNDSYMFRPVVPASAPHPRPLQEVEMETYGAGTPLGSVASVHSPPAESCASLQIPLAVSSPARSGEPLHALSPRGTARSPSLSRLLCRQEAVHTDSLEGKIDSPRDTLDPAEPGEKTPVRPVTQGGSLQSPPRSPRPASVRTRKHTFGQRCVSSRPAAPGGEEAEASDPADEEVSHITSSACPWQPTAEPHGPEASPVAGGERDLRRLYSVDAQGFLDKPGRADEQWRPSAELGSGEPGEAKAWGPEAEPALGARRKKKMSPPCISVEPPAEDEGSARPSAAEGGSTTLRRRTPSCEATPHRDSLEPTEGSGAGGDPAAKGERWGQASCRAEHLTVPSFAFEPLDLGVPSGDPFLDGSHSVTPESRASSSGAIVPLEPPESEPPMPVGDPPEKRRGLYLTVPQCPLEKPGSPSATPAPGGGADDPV
Chain of Beta-galactosidase (Q8VNN2 whole entry): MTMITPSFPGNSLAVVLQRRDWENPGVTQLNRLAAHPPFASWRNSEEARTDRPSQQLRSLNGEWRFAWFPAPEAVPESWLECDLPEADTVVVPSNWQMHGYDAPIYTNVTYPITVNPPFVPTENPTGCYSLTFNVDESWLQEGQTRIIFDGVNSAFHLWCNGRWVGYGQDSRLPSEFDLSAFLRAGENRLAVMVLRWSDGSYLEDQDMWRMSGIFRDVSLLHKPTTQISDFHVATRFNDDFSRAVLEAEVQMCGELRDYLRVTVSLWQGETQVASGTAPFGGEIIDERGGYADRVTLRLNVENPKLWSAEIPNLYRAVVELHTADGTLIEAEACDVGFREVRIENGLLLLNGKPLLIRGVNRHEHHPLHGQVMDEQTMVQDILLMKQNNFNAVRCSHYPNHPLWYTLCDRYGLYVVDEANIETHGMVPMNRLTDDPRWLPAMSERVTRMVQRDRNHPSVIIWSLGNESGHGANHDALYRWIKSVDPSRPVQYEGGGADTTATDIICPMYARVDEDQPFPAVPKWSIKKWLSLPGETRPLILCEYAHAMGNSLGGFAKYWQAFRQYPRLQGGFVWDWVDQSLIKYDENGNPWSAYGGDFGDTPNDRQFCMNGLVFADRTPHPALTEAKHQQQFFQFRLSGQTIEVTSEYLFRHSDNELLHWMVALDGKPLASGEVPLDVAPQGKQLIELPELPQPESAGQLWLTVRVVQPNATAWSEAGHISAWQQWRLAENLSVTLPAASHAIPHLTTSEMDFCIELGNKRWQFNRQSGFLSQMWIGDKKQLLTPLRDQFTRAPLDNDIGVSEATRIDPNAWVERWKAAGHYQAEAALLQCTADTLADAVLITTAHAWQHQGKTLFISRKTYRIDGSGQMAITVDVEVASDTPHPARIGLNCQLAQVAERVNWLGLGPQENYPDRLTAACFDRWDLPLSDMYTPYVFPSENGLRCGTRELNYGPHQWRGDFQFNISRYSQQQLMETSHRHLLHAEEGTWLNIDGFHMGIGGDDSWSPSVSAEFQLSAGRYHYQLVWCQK

## CC(Oc1ccccc1)c1ccnn1S(=O)(=O)c1ccccc1 (configuration not stated)
[1]
  EC50: 50.8 µM (active)

## CCn1c(CNc2ccccc2Cl)nnc1SCC(=O)OC1CCCCC1
[1]
  EC50: 3.84 µM (active)

## CC1=NN(c2ccc(C)cc2)C(=O)/C1=C/c1ccc(-c2cc([N+](=O)[O-])ccc2O)o1
Beta-galactosidase
  EC50: > 40 µM (inactive)
[2]
  IC50: > 40 µM (not active)

## COc1cccc(/N=C2\NC(=O)/C(=C/c3cc([N+](=O)[O-])ccc3O)S2)c1
Beta-galactosidase
  EC50: > 40 µM (inactive)
[2]
  IC50: > 40 µM (not active)

## O=C(COC(=O)c1ccco1)c1ccc(S(=O)(=O)N2CCCCC2)cc1
Beta-galactosidase
  EC50: > 40 µM (inactive)
[2]
  IC50: 16.5 µM (active)

## COCCNC(=O)c1c(NC(=O)c2nc(SC)ncc2Cl)sc2c1CCCC2
[3]
  IC50: > 100 µM (inactive)
[4]
  IC50: 17.6 µM (active)
Prothrombin
  IC50: 50 µM (active)

## Cc1nn(CCC(=O)NN=C(S)Nc2ccc(F)cc2)c(C)c1Br
Beta-galactosidase
  EC50: > 40 µM (inactive)
[2]
  IC50: > 40 µM (not active)

## Cc1cc(NS(=O)(=O)c2ccc(NC(=O)Nc3cccc(Cl)c3)cc2)no1
[5]
  AC50: 0.098 µM (active)
[6]
  EC50: > 50 µM (active)

## Cc1ccc(S(=O)(=O)NC2CCCCC2)cc1
Cytochrome P450 3A4
  AC50: 20 µM (inconclusive)

## Cc1cc(NC(=O)/C(C#N)=C/c2ccc(-c3ccc(SC(F)F)cc3)o2)n(-c2ccccc2)n1
[7]
  EC50: > 99 µM (inactive)
[8]
  EC50: 48.9 µM (inactive)
[9]
  EC50: 25.8 µM (active)
[10]
  EC50: 22.9 µM (active)

## O=C(CSc1nnc(-c2ccccc2)n1Cc1ccco1)NCc1ccc2c(c1)OCO2
[1]
  EC50: 12.1 µM (active)

## CNC(=O)/C(C#N)=C/c1c(N(Cc2ccccc2)Cc2ccccc2)nc2ccccn2c1=O
H9c2
  IC50: > 79 µM (inactive)
Vero
  CC50: > 40 µM (active)

## Cc1ccc2oc(C(=O)Nc3ccc(S(=O)(=O)Nc4onc(C)c4C)cc3)c(C)c2c1
cells
  IC50: 23.7 µM (active)
[11]
  CC50: 25.9 µM (active)

## COc1ccccc1C(=O)Nc1ccc(NC(=O)c2ccco2)c(C)c1
[1]
  EC50: 6.29 µM (active)

## COc1ccc(N(C(=O)c2cccnc2)S(=O)(=O)c2ccc(F)cc2)cc1
[6]
  EC50: > 50 µM (active)

## Clc1ccc(C2[C@H]3CN(Cc4ccc(-c5ccccc5)cc4)[C@H](c4ccccc4)C34CC2(c2ccccc2)C4)cn1 (some centres not stated)
Cytochrome P450 3A4
  AC50: 15.8 µM (inconclusive)

## O=c1oc2ccccc2cc1-c1nc(-c2cccs2)cs1
[7]
  EC50: > 99 µM (inactive)
[8]
  EC50: > 99 µM (inactive)
[9]
  EC50: 5.43 µM (active)
[10]
  EC50: 15.6 µM (inconclusive)

## O=C(CSc1nc2ccccc2o1)Nc1nc2c(s1)CCCC2
[3]
  IC50: > 100 µM (inactive)
[4]
  IC50: 30.6 µM (active)
Prothrombin
  IC50: 24 µM (active)

## CC(=O)c1ccc(N2CCN(Cc3nc4ccccc4[nH]3)CC2)cc1
cells
  IC50: 10.8 µM (active)
[11]
  CC50: > 50 µM (active)

Source: ChEMBL document CHEMBL1201862, “PubChem BioAssay data set” (2004)
